Reference: ChEMBL document CHEMBL5344448, “Amide Alkaloids as Privileged Sources of Senomodulators for Therapeutic Purposes in Age-Related Diseases” (J Nat Prod, 2024)

Tests used:
[1] = Inhibition of rat liver microsome ACAT; format: microsomes
[2] = tested on: WI-38; assay: Induction of senescence in human WI-38 cells; format: functional, cell-based

SMILES	IC50 [1] [µM]	IC50 [2] [µM]
O=C(/C=C/C=C/CC/C=C/c1ccc2c(c1)OCO2)N1CCCCC1 [DEHYDROPIPERNOLINE]	90	2.1
CC(C)CNC(=O)/C=C/C=C/CCCCCC/C=C/c1ccc2c(c1)OCO2 [GUINEENSINE]	3	8.9
CCCCC/C=C/C=C/C(=O)NCC(C)C [PELLITORIN]		0.67
O=C(/C=C/C=C/c1ccc2c(c1)OCO2)N1CCCCC1 [PIPERINE]		8.8
COc1cc(/C=C/C(=O)N2CCC=CC2=O)cc(OC)c1OC [PIPLARTINE]		8
CC(C)CNC(=O)/C=C/C=C/CCCC/C=C/c1ccc2c(c1)OCO2 [RETROFRACTAMIDE B]		2
